Measurements published in patent US10233184B2, “7-substituted sulfonimidoylpurinone compounds and derivatives for the treatment and prophylaxis of virus infection” (Hoffmann-La Roche Inc., priority 2016, dated 2019).
Converted amounts (≈) assume the structure as drawn.

Legend:
[1] = system: HBV; experiment: In vivo antiviral efficacy in AAV-HBV mouse model; design: species or system C57BL/6 mice; settings: for reduction in HBV DNA / reduction in HBsAg: serum
Description: 4-6 week old male C57BL/6 mice, specific pathogen free, were purchased from Shanghai Laboratory Animal Center of Chinese Academy of Sciences (SLAC) and housed in an animal care facility in individually ventilated cages under controlled temperature and light conditions following the Institutional Animal Care guidelines. AAV-HBV virus was purchased from Beijing FivePlus Molecular Medicine Institute (Beijing, China). The recombinant virus carries 1.3 copies of the HBV genome packaged into AAV serotype 8 (AAV8) capsids. C57BL/6 mice were injected with 200 μL of the recombinant virus diluted in saline buffer through tail vein. On day 14, the mice were bled to measure HBV surface antigen (HBsAg) and HBV genomic DNA in the serum, and animals were then randomized into groups according to these HBV biomarkers.
Serum HBsAg and HBeAg were measured using CLIA kits (Autobio Diagnostics Co., Ltd., Zhengzhou, China) according to the manufacturer's instructions. The lower limit of detection for HBsAg was 0.05 IU/mL. Serum dilution of 500-fold was used to obtain values within the linear range of the standard curve.
Serum HBV DNA was extracted using a MagNA Pure 96 DNA and Viral NA Small Volume Kit (Roche) following the manufacturer's instructions. The DNA samples were analyzed by real-time quantitative PCR (qPCR) using a HBV-specific primer and probe set for specific amplification and detection of a 128 bp HBV genome region from the nucleotide 2969 to 3096. The sequences of the primers and probe are: […]
Anti-HBs in the serum was tested using Anti-HBs CLIA kits (Autobio Diagnostics Co., Ltd., Zhengzhou, China) and mouse anti-IgG conjugated with Biotin (0.5 mg/mL) from a Mabtech B Elispot kit. The anti-IgG Biotin was diluted in PBS with a final concentration of 1 μg/mL. 25 μL of mouse anti-IgG were mixed with serum samples in wells of the plate in the Anti-HBs CLIA kit for 1-hour incubation. Then wash the plate and add Streptavidin-HRP for 1-hour incubation at room temperature. After repeating the washing step, mix substrate A and B from the CLIA kit and add 50 μL of the mixture in each well. After 5-min incubation at room temperature, the plate was read on an Envision Plate Reader (PerkinElmer) to measure luminecence.
The mouse model with high level expression of both HBV DNA and HBsAg was generated by injecting C57BL/6 mice with a recombinant adeno-associated virus (AAV) carrying a replicable HBV genome (AAV-HBV). With long-lasting HBV viremia and fully competent immune system, the AAV-HBV mouse model was utilized to evaluate the antiviral efficacy of the TLR7 agonists following the study design as shown in Table 3.
Specifically, groups 2 and 3 were orally dosed with Example 43-A at 10 mg/kg every other day (QOD) and once weekly (QW), respectively, and the control group 1 received only Vehicle. At the dosing volume of 10 mL/kg, Example 43-A (1 mg/mL) was formulated as an inclusion complex with 2% Klucel LF, 0.5% TPGS, 0.09% Methylparabens, 0.01% Propylparabens in water. The animals were treated for a total of 42 days, and were submandibularly bled twice per week for serum collection throughout the study. The serum samples were subjected to analysis of HBV biomarkers.
The antiviral efficacy of Example 41-A was evaluated in the same AAV-HBV model following the study design in Table 4 with the same methods to measure HBV biomarkers as described in Example 51.
Specifically, groups 2, 3 and 4 were orally dosed with Example 41-A at 1, 3 and 10 mg/kg QOD respectively. Group 5 was treated with 10 mg/kg QW, while group 1 with only Vehicle. At the dosing volume of 10 mL/kg, Example 41-A (0.1, 0.3, and 1 mg/mL) was formulated as an inclusion complex with 2% Klucel LF, 0.5% TPGS, 0.09% Methylparabens, 0.01% Propylparabens in water. The animals were treated for a total of 42 days, and were submandibularly bled twice per week for serum collection throughout the study. The serum samples were subjected to analysis of HBV biomarkers. […]

[2] = LYSA solubility study; format: physicochemical; settings: phosphate buffer, pH 6.5, aqueous buffer, thermodynamic from solid, 0.05M phosphate buffer pH 6.5, read-out: LYSA of Prodrugs
In short: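 Samples from 10 mM DMSO stock were dried, redissolved in 0.05M phosphate buffer pH 6.5, stirred 1 h, shaken 2 h, left overnight and filtered. Filtrate and 1/10 dilution quantified by HPLC-UV; solubility in μg/mL, reported as greater-than when >80% of the maximum sample amount was in solution.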

[3] = AAV-HBV mice, 10 mg/kg PO QW, 42 days
[4] = AAV-HBV mice, 1, 3, 10 mg/kg PO QOD (all three doses)
[5] = AAV-HBV mice, 1, 3, 10 mg/kg PO QOD, 42 days
[6] = AAV-HBV mice, 1, 3, 10 mg/kg PO QOD, 42 days, all treated groups
[7] = AAV-HBV mice, 10 mg/kg PO QOD, 42 days

Row | Compound | levels of HBV DNA and HBsAg at the treatment end [1, 3] | levels of HBV DNA and HBsAg at the end of the 42-day treatment [1, 4] | anti-HBsAg antibody level ([1]; AAV-HBV mice, 1, 3, 10 mg/kg PO QOD and 10 mg/kg QW, post treatment, versus Vehicle) | effect on HBV DNA and HBsAg [1, 5] | solubility thermodynamic [2] [µg/mL] | anti-HBsAg antibody level [1, 6] | levels of HBV DNA and HBsAg at the end of the 42-day treatment ([1]; AAV-HBV mice, 10 mg/kg PO QOD) | reduction in HBV DNA [1, 7] [log] | reduction in HBsAg [1, 7] [log] | reduction in HBV DNA [1, 3] [log] | reduction in HBsAg [1, 3] [log] | anti-HBsAg antibody level ([1]; AAV-HBV mice, 10 mg/kg PO, regardless of QOD and QW, 42 days)
1 | CCCN(C)C(=O)n1c(=O)n(Cc2ccc(Cl)cc2)c2nc([S@](=N)(=O)CC)nc(N)c21 [Example 41-A, 6-Amino-9-[(4-chlorophenyl)methyl]-2-[S(R)-ethylsulfonimidoyl]-N-methyl-8-oxo-N-propyl-purine-7-carboxamide] | undetectable levels | below or close to the LLOQ | significantly higher levels of antibody against-HbsAg than Vehicle | dose-dependently reduced HBV DNA and HBsAg | 260 (≈ 558 µM) |  |  |  |  |  |  | 
2 | CCCN(C)C(=O)n1c(=O)n(Cc2ccc(Cl)cc2)c2nc([S@@](=N)(=O)CC)nc(N)c21 [Example 41-B, 6-Amino-9-[(4-chlorophenyl)methyl]-2-[S(S)-ethylsulfonimidoyl]-N-methyl-8-oxo-N-propyl-purine-7-carboxamide] |  | below the LLOQ |  | all effective to reduce HBV DNA and HBsAg | 250 (≈ 537 µM) | high levels of anti-HBsAg antibody than the Vehicle group |  |  |  |  |  | 
3 | CCN(C)C(=O)n1c(=O)n(Cc2ccc(Cl)cc2)c2nc([S@@](=N)(=O)CC)nc(N)c21 [Example 42-A, 6-Amino-9-[(4-chlorophenyl)methyl]-N-ethyl-2[S(S)-ethylsulfonimidoyl]-N-methyl-8-oxo-purine-7-carboxamide] |  | below or close to the LLOQ |  | all effective to reduce HBV DNA and HBsAg | 225 (≈ 498 µM) | significantly higher levels of anti-HBsAg antibody |  |  |  |  |  | 
4 | CCCN(C)C(=O)n1c(=O)n(Cc2ccc(C)cc2)c2nc([S@](=N)(=O)CC)nc(N)c21 [Example 43-A, 6-Amino-2-[S(R)-ethylsulfonimidoyl]-N-methyl-8-oxo-N-propyl-9-(p-tolylmethyl)purine-7-carboxamide] |  |  |  |  | 203 (≈ 456 µM) |  | undetectable and below the lower limit of quantification (LLOQ) | > 3 | > 2.8 | > 2 | > 2.8 | induced a considerable level of anti-HBsAg antibody
